Source: patent US20170219562A1, “EPIGENETIC COMPOUND SCREENING PLATFORM” (Legacy Emanuel Hospital & Health Center, priority 2016, published 2017)

Columns and labels:
[1] = tested on: ADK-L cells; assay: 5-methylcytosine (5-mC) ELISA of genomic DNA from treated ADK-L cells; assay type: cell-based; details: compound at its IC50, genomic DNA isolated 24 hours after treatment, 100 ng DNA, n=8-9
Experimental: The IC50 for each ADK inhibitor was selected as the treatment dose. Total genomic DNA was isolated 24 hours after treatment and 100 ng of purified DNA was run on a 5-methylcytosine (5-mC) ELISA (Zymo Research Corp.) to quantify 5-methylcytosine. […] Data are represented as the mean±SEM (n=8-9). Statistical analysis is a One-way ANOVA (F(4,37)=2.95, p=0.033) followed by uncorrected Fisher's LSD post hoc test.
The IC50 of CBZ was selected as the treatment dose. Total genomic DNA was isolated 24 hours after treatment, and 100 ng of purified DNA was run on a 5-methylcytosine (5-mC) ELISA (Zymo Research Corp) to determine the amount of 5-methylcytosine. […] Data are represented as the mean±SEM (n=8-9). Statistical analysis is a One-way ANOVA for Panel A (F(2,23)=5.67, p=0.0099) followed by uncorrected Fisher's LSD post hoc test and Kruskal-Wallis test for Panel B (Kruskal-Wallis statistic=1.11, p=0.57).

[2] = tested on: ADK-S cells; assay: 5-methylcytosine (5-mC) ELISA of genomic DNA from treated ADK-S cells; assay type: cell-based; details: for DNA methylation levels in ADK-S cells compared to vehicle-treated ADK-S cells: compound at its IC50, 24 hours after treatment, n=4-9
Experimental: 100 ng of purified genomic DNA was run on a 5-methylcytosine (5-mC) ELISA (Zymo Research Corp.) to quantify 5-methylcytosine.
FIG. 8 is a pair of bar graphs plotting the amount of 5-methylcytosine detected in genomic DNA isolated from the ADK-null cell line (Panel A) and the ADK-S cell line (Panel B) of FIG. 3, in the absence or presence of various ADK inhibitors, with each amount normalized with respect to the amount detected for vehicle-treated ADK-null cells. ADK-null and ADK-S cells identify off target effects of ADK inhibitors on DNA methylation levels. […] The IC50 for each ADK inhibitor was selected as the treatment dose. Total genomic DNA was isolated 24 hours after treatment, and 100 ng of purified DNA was run on a 5-methylcytosine (5-mC) ELISA (Zymo Research Corp) to determine the amount of 5-methylcytosine. […] Data are represented as the mean±SEM (n=4-9). Statistical analysis is a One-way ANOVA followed by uncorrected Fisher's LSD post hoc test.
FIG. 9 is a pair of bar graphs plotting the amount of 5-methylcytosine detected in genomic DNA isolated from the ADK-L cell line (Panel A) and the ADK-S cell line (Panel B) of FIG. 3, in the absence or presence of carbamazepine, with vehicle-treated ADK-null cells as a control. […] The IC50 of CBZ was selected as the treatment dose. Total genomic DNA was isolated 24 hours after treatment, and 100 ng of purified DNA was run on a 5-methylcytosine (5-mC) ELISA (Zymo Research Corp) to determine the amount of 5-methylcytosine. […] Data are represented as the mean±SEM (n=8-9). Statistical analysis is a One-way ANOVA for Panel A (F(2,23)=5.67, p=0.0099) followed by uncorrected Fisher's LSD post hoc test and Kruskal-Wallis test for Panel B (Kruskal-Wallis statistic=1.11, p=0.57).

[3] = target: ADK (Homo sapiens, UniProt P55263); details: cited from earlier work; for IC50: used as treatment dose, read-out: IC50 of ADK inhibitor
Chain of ADK (P55263 whole entry, species assumed): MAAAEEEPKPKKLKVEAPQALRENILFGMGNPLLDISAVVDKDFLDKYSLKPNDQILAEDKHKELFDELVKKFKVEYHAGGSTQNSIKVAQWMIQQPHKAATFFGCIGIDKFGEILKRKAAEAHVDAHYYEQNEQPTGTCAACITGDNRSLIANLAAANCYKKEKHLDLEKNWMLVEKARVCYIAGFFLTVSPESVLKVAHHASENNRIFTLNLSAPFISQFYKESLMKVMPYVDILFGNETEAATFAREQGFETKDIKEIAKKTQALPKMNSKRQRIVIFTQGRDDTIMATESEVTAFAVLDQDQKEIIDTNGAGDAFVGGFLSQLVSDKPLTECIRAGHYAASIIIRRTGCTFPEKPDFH

Row | Structure (SMILES) | DNA methylation (5-methylcytosine) in ADK-L cells versus vehicle alone [1] | DNA methylation levels in ADK-S cells compared to vehicle-treated ADK-S cells [2] | IC50 [3] [nM] | DNA methylation levels in CBZ-treated ADK-S cells compared to ADK-null cells ([2]; CBZ 24.5 nM, 24 hours after treatment, n=8-9, Kruskal-Wallis p=0.57) | Interaction with ADK [3]
1 | Nc1ncnc2c1c(I)cn2[C@@H]1O[C@H](CO)[C@@H](O)[C@H]1O [5-ITU, 5-iodotubercidin] | significantly decreases DNA methylation | significantly increased | – | – | –
2 | Nc1ncnc2nc(-c3ccc(N4CCOCC4)nc3)cc(-c3cccc(Br)c3)c12 [ABT-702] | Neither ABT-702 nor A-134974 alters DNA methylation | – | 1.7 | – | –
3 | NC(=O)N1c2ccccc2C=Cc2ccccc21 [CBZ, Carbamazepine] | does not decrease DNA methylation | – | – | not significantly different | does not interact with ADK
4 | Nc1ncnc2c1c(I)cn2[C@@H]1C[C@H](N)[C@@H](O)[C@H]1O [A-134974] | Neither ABT-702 nor A-134974 alters DNA methylation | significantly increased | 0.06 | – | –
